The record followed here is patent US10413535B2, “Pharmaceutical compositions comprising an integrin ALPHA4 antagonist for use in treating ocular inflammatory conditions” (AXEROVISION, INC., priority 2015, dated 2019).

In experiment [1] the target is T1, Human α4β1 (Homo sapiens, UniProt P05556+P13612).
T1 construct: characterized in human J6 cells which express VLA-4; endogenous in cells; host or cells: Jurkat J6 cells (human lymphoblast cell line)
Briefly: J6 saturation binding assay (filtration) with [3H]GW559090. To be noted: [3H]GW559090, J6 cells; geometric mean and 95% CL, 4 experiments. On the procedure:
(§1) Jurkat J6 cells (human lymphoblast cell line) were grown as a suspension culture in RPMI 1640 supplemented with FCS (10%) and glutamine (2 mM). RPMI8866 cells (human B lymphoid cell line) were grown as a suspension culture in RPMI 1640 supplemented with FCS (10%) and glutamine (2 mM). RBL-2H3 cells (rat basophilic cell line) were cultured in Eagle's MEM plus Earles salts supplemented with 2 mM L-glutamine, 1 mM sodium pyruvate, 1× non-essential amino acids, 1 mM Na pyruvate 10% heat inactivated foetal calf serum.
Binding of the compound of formula I was characterized in human J6 cells which express VLA-4. J6 cells were harvested by centrifugation for 5 minutes at 500 g and resuspended in assay buffer (50 mM HEPES, pH 7.5, 100 mM NaCl, 2 mM glucose, 1 mM MnCl2). Each well contained 1×10^6 cells and either 10 μM cold GW559090, to define the NSBs (non-specific binding), or buffer. […] Bound [3H]GW559090 was separated from free by rapid vacuum filtration through pre-soaked Whatman GF/B filters, followed by three washes in ice-cold buffer, scintillant was then added to filter discs and disintegrations per minute measured on a Beckman Scintillation counter. […] GW559090 added for each concentration of the saturation curve was measured by counting disintegrations from a 50 μL aliquot of the label dilution range.

In experiment [2] the target is T2, α4β7-MAdCAM (Homo sapiens, UniProt P13612+P26010).
T2 construct: endogenous in cells; host or cells: RPMI 8866 cells (human B lymphoid cell line)
T2 sequence (P13612 34-1032): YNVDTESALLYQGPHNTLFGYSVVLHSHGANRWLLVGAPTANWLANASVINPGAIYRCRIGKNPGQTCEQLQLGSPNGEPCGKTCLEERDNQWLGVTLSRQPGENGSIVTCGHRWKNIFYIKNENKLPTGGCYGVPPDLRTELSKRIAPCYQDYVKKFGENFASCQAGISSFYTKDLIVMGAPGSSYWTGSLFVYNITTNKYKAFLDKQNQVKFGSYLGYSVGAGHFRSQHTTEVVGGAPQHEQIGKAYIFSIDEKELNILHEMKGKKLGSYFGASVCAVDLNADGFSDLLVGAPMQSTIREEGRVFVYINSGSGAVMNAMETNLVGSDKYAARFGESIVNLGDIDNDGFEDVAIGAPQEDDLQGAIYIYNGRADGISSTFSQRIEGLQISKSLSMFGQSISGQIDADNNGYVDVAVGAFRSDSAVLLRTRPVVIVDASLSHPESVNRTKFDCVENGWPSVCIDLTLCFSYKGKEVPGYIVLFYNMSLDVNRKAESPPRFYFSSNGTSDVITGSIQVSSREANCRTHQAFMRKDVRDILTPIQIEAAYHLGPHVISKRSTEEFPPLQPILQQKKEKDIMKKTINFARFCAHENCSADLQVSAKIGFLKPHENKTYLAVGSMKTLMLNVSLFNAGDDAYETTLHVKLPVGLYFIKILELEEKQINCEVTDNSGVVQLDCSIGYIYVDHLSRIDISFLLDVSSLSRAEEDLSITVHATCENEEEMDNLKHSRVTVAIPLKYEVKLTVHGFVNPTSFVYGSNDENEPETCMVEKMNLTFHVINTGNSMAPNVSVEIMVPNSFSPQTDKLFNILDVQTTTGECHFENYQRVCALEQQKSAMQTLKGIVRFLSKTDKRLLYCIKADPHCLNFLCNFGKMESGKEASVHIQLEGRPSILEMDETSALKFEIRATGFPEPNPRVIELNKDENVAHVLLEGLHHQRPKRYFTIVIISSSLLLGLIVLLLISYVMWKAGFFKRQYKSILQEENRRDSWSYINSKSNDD
T2 sequence (P26010 20-798): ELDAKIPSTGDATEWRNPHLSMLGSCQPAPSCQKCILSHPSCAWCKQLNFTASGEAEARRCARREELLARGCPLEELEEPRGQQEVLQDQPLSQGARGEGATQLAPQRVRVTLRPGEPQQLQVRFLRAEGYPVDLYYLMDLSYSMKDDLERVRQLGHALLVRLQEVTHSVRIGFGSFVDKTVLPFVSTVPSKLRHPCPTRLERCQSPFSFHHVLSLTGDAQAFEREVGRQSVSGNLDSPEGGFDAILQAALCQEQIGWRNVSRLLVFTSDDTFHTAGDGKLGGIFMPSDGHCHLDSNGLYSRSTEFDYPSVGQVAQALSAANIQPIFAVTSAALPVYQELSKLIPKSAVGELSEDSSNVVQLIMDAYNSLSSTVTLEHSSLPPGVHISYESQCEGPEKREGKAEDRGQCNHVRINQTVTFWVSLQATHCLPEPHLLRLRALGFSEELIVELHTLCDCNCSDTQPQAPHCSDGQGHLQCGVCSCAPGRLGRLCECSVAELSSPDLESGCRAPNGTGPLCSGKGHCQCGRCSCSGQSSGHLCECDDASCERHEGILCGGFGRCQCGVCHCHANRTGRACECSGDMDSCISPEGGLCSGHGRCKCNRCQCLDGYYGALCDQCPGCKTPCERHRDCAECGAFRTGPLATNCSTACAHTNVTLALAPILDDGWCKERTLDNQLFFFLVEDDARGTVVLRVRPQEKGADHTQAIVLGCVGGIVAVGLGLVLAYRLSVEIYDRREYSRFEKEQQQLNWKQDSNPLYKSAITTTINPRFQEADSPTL
In words: MAdCAM cell adhesion assay, RPMI 8866 cells. To be noted: RPMI 8866 cells to MAdCAM; read-out: Inhibition of cell adhesion (IC50). It counts as cell-based. On the procedure: as §1
Polystyrene 96-well microtitre plates were coated with IgG at a concentration of 0.05 mg/mL in bicarbonate buffer for 2.5 hours at 37° C. The solution was aspirated and the plates washed twice with PBS. The plates were then incubated overnight at 4° C. with MAdCAM at a concentration of 204.0 ng/mL in 3% BSA in PBS. Prior to use the MAdCAM was aspirated and the plates washed twice with PBS. J6 or RPMI cells (as required) were labelled with the fluorescent dye BCECF-AM (10 μM and 6×10^6 cells/mL) for 10 min at 37° C. before the excess was removed by centrifugation at 500 g for 5 min and the cells resuspended at a cell concentration of 1.2×10^7 cells/mL in HBSS. Equal volumes of HBSS containing the compound of formula I (over concentration range 38.1 pM to 10 μM) and cells were added to the MAdCAM coated plates. […] The plates were counted in a Wallac Viktor.

T1 sequence (P05556 21-798, one chain of several): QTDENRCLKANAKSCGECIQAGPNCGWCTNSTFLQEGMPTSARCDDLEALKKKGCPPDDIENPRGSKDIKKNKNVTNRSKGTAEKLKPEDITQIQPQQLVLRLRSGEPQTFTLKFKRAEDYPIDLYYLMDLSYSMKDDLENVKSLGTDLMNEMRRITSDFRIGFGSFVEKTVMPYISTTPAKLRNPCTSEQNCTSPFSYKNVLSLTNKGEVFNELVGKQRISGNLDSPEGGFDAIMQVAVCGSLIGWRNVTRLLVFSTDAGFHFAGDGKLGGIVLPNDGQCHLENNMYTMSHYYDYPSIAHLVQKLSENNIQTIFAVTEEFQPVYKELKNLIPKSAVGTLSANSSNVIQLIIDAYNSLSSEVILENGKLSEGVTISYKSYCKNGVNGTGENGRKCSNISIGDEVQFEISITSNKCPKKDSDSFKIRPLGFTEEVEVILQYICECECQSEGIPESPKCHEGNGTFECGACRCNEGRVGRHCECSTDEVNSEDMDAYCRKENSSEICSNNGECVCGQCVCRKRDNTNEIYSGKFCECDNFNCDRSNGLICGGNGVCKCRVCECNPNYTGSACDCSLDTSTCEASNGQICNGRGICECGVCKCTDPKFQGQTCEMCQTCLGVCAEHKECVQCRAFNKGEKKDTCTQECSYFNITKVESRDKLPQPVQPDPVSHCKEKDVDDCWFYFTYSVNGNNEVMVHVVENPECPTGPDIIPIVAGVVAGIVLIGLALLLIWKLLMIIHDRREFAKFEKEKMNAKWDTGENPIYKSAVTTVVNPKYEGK

The term Kd denotes a measure of binding affinity in units of concentration. High values mean a looser complex, low ones a tighter complex. What is called IC50 is the midpoint of a concentration-inhibition curve. As to `Cc1ccccc1OCC(=O)N[C@@H](CC(C)C)C(=O)N[C@@H](Cc1ccc(OC(=O)N2CCC(C(N)=O)CC2)cc1)C(=O)O` [GW559090, (2S)-3-[4-({[4-(Aminocarbonyl)-1-piperidinyl]carbonyl}oxy)phenyl]-2-[((2S)-4-methyl-2-{[2-(2-methylphenoxy)acetyl]amino}pentanoyl)amino]propanoic acid], binding in experiment [1] was put at a Kd of 0.19 nM. Also, in experiment [2], the 50% inhibitory concentration (IC50) was 23 nM.
